Measured values taken from publication PMC9797307, “Measurement of Pharmacokinetics and Tissue Distribution of Four Compounds from Nauclea officinalis in Rat Plasma and Tissues through HPLC-MS/MS” (Journal of Analytical Methods in Chemistry, 2022).

Assay: Stability of QC samples in rat plasma and tissue homogenates under different storage conditions
Assay type: in vitro ADME
Details: in % (unit assumed)

## O=C(/C=C/c1ccc(O)c(O)c1)O[C@@H]1C[C@](O)(C(=O)O)C[C@@H](O)[C@H]1O [Chlorogenic acid]
Brain, 2 ng/mL
  Accuracy, Ambient temperature for 4 h: 110.33 ± 7.55
  Accuracy, Three freeze-thraw cycles: 105.65 ± 10.92
  Accuracy, −80°C for 30 days: 90.73 ± 10.25
Brain, 4 ng/mL
  Accuracy, Ambient temperature for 4 h: 89.12 ± 9.00
  Accuracy, Three freeze-thraw cycles: 90.68 ± 10.51
  Accuracy, −80°C for 30 days: 105.32 ± 9.72
Brain, 100 ng/mL
  Accuracy, Ambient temperature for 4 h: 91.93 ± 9.93
  Accuracy, Three freeze-thraw cycles: 108.13 ± 9.91
  Accuracy, −80°C for 30 days: 105.48 ± 6.92
Brain, 2400 ng/mL
  Accuracy, Ambient temperature for 4 h: 102.93 ± 5.79
  Accuracy, Three freeze-thraw cycles: 96.57 ± 10.12
  Accuracy, −80°C for 30 days: 97.98 ± 9.56
Heart, 2 ng/mL
  Accuracy, Ambient temperature for 4 h: 102.73 ± 12.98
  Accuracy, Three freeze-thraw cycles: 91.72 ± 6.33
  Accuracy, −80°C for 30 days: 88.98 ± 5.73
Heart, 4 ng/mL
  Accuracy, Ambient temperature for 4 h: 96.88 ± 11.06
  Accuracy, Three freeze-thraw cycles: 99.03 ± 10.17
  Accuracy, −80°C for 30 days: 102.27 ± 10.30
Heart, 100 ng/mL
  Accuracy, Ambient temperature for 4 h: 112.83 ± 9.11
  Accuracy, Three freeze-thraw cycles: 111.00 ± 7.72
  Accuracy, −80°C for 30 days: 112.62 ± 8.15
Heart, 2400 ng/mL
  Accuracy, Ambient temperature for 4 h: 108.60 ± 8.41
  Accuracy, Three freeze-thraw cycles: 110.55 ± 8.11
  Accuracy, −80°C for 30 days: 104.85 ± 10.69
Kidney, 2 ng/mL
  Accuracy, Ambient temperature for 4 h: 110.07 ± 7.34
  Accuracy, Three freeze-thraw cycles: 97.22 ± 7.67
  Accuracy, −80°C for 30 days: 89.87 ± 9.23
Kidney, 4 ng/mL
  Accuracy, Ambient temperature for 4 h: 87.63 ± 7.76
  Accuracy, Three freeze-thraw cycles: 87.60 ± 9.26
  Accuracy, −80°C for 30 days: 89.60 ± 9.05
Kidney, 100 ng/mL
  Accuracy, Ambient temperature for 4 h: 112.00 ± 7.01
  Accuracy, Three freeze-thraw cycles: 111.17 ± 7.44
  Accuracy, −80°C for 30 days: 103.22 ± 11.32
Kidney, 2400 ng/mL
  Accuracy, Ambient temperature for 4 h: 100.55 ± 5.11
  Accuracy, Three freeze-thraw cycles: 100.45 ± 3.96
  Accuracy, −80°C for 30 days: 101.23 ± 4.69
Liver, 2 ng/mL
  Accuracy, Ambient temperature for 4 h: 88.47 ± 6.93
  Accuracy, Three freeze-thraw cycles: 88.47 ± 7.22
  Accuracy, −80°C for 30 days: 87.43 ± 7.74
Liver, 4 ng/mL
  Accuracy, Ambient temperature for 4 h: 86.27 ± 7.32
  Accuracy, Three freeze-thraw cycles: 86.00 ± 6.23
  Accuracy, −80°C for 30 days: 87.30 ± 4.35
Liver, 100 ng/mL
  Accuracy, Ambient temperature for 4 h: 99.82 ± 2.89
  Accuracy, Three freeze-thraw cycles: 102.27 ± 4.97
  Accuracy, −80°C for 30 days: 87.13 ± 5.77
Liver, 2400 ng/mL
  Accuracy, Ambient temperature for 4 h: 104.17 ± 2.14
  Accuracy, Three freeze-thraw cycles: 99.98 ± 1.86
  Accuracy, −80°C for 30 days: 87.02 ± 5.24
Lung, 2 ng/mL
  Accuracy, Ambient temperature for 4 h: 103.27 ± 8.01
  Accuracy, Three freeze-thraw cycles: 112.93 ± 9.57
  Accuracy, −80°C for 30 days: 113.77 ± 9.20
Lung, 4 ng/mL
  Accuracy, Ambient temperature for 4 h: 101.83 ± 6.41
  Accuracy, Three freeze-thraw cycles: 100.07 ± 10.39
  Accuracy, −80°C for 30 days: 98.77 ± 6.15
Lung, 100 ng/mL
  Accuracy, Ambient temperature for 4 h: 111.50 ± 5.47
  Accuracy, Three freeze-thraw cycles: 110.17 ± 7.14
  Accuracy, −80°C for 30 days: 110.03 ± 9.33
Lung, 2400 ng/mL
  Accuracy, Ambient temperature for 4 h: 100.67 ± 10.17
  Accuracy, Three freeze-thraw cycles: 104.88 ± 8.23
  Accuracy, −80°C for 30 days: 110.17 ± 4.54
Plasma, 2 ng/mL
  Accuracy, Ambient temperature for 4 h: 101.68 ± 8.39
  Accuracy, Three freeze-thraw cycles: 101.23 ± 12.44
  Accuracy, −80°C for 30 days: 93.35 ± 10.78
Plasma, 4 ng/mL
  Accuracy, Ambient temperature for 4 h: 86.78 ± 6.16
  Accuracy, Three freeze-thraw cycles: 95.02 ± 5.39
  Accuracy, −80°C for 30 days: 98.92 ± 12.32
Plasma, 100 ng/mL
  Accuracy, Ambient temperature for 4 h: 112.33 ± 3.72
  Accuracy, Three freeze-thraw cycles: 100.68 ± 6.22
  Accuracy, −80°C for 30 days: 113.17 ± 4.96
Plasma, 2400 ng/mL
  Accuracy, Ambient temperature for 4 h: 98.40 ± 5.56
  Accuracy, Three freeze-thraw cycles: 91.98 ± 4.75
  Accuracy, −80°C for 30 days: 112.67 ± 7.58
Small intestine, 2 ng/mL
  Accuracy, Ambient temperature for 4 h: 105.00 ± 8.20
  Accuracy, Three freeze-thraw cycles: 103.90 ± 4.49
  Accuracy, −80°C for 30 days: 101.42 ± 7.82
Small intestine, 4 ng/mL
  Accuracy, Ambient temperature for 4 h: 91.73 ± 4.49
  Accuracy, Three freeze-thraw cycles: 99.78 ± 7.70
  Accuracy, −80°C for 30 days: 106.70 ± 5.43
Small intestine, 100 ng/mL
  Accuracy, Ambient temperature for 4 h: 95.90 ± 12.31
  Accuracy, Three freeze-thraw cycles: 100.93 ± 12.33
  Accuracy, −80°C for 30 days: 99.07 ± 12.41
Small intestine, 2400 ng/mL
  Accuracy, Ambient temperature for 4 h: 112.00 ± 5.37
  Accuracy, Three freeze-thraw cycles: 111.67 ± 6.12
  Accuracy, −80°C for 30 days: 110.83 ± 6.68
Spleen, 2 ng/mL
  Accuracy, Ambient temperature for 4 h: 97.62 ± 8.11
  Accuracy, Three freeze-thraw cycles: 105.55 ± 7.56
  Accuracy, −80°C for 30 days: 109.70 ± 13.05
Spleen, 4 ng/mL
  Accuracy, Ambient temperature for 4 h: 105.82 ± 9.91
  Accuracy, Three freeze-thraw cycles: 103.68 ± 9.71
  Accuracy, −80°C for 30 days: 98.88 ± 4.16
Spleen, 100 ng/mL
  Accuracy, Ambient temperature for 4 h: 112.00 ± 7.82
  Accuracy, Three freeze-thraw cycles: 106.82 ± 6.88
  Accuracy, −80°C for 30 days: 111.17 ± 7.17
Spleen, 2400 ng/mL
  Accuracy, Ambient temperature for 4 h: 101.52 ± 7.73
  Accuracy, Three freeze-thraw cycles: 106.67 ± 5.43
  Accuracy, −80°C for 30 days: 104.73 ± 7.04
Stomach, 2 ng/mL
  Accuracy, Ambient temperature for 4 h: 113.08 ± 11.06
  Accuracy, Three freeze-thraw cycles: 113.58 ± 8.22
  Accuracy, −80°C for 30 days: 109.08 ± 9.97
Stomach, 4 ng/mL
  Accuracy, Ambient temperature for 4 h: 102.70 ± 10.17
  Accuracy, Three freeze-thraw cycles: 98.87 ± 9.82
  Accuracy, −80°C for 30 days: 89.87 ± 7.04
Stomach, 100 ng/mL
  Accuracy, Ambient temperature for 4 h: 93.75 ± 8.65
  Accuracy, Three freeze-thraw cycles: 93.47 ± 6.76
  Accuracy, −80°C for 30 days: 107.33 ± 5.89
Stomach, 2400 ng/mL
  Accuracy, Ambient temperature for 4 h: 107.17 ± 8.68
  Accuracy, Three freeze-thraw cycles: 100.23 ± 4.63
  Accuracy, −80°C for 30 days: 99.73 ± 10.09
